One data set concerns male mice of ddy-strain. Put plainly: in vivo. The data set is classed as in vivo. As to conditions: subcutaneous injection, 72 hours, Litchfield-Wilcoxon.
A further data set deals with dogs. As to the kind of experiment: Antitussive activity (50%-antitussive effective dose AtD50; efficiency ratio relative to codeine phosphate). As to conditions: intravenous injection; for Antitussive Ratio: efficiency ratio relative to codeine phosphate; for ED50: Canis lupus familiaris, Litchfield-Wilcoxon method, read-out: AtD50 (50%-antitussive effective dose). The data set is classed as in vivo. The procedure:
route of administration:
From the efficiency rate obtained upon each administration step, 50%-antitussive effective dose (AtD50) was calculated according to the Litchfield-Wilcoxon method. Further, efficiency ratio relative to codeine phosphate was also determined.

For a further data set, the system named is persons. As to conditions: in words; inhibits long continuous administration; cited from earlier work.
Another data set can be described thus: in vivo. As to conditions: mouse, in vivo, sc, male ddy mice, subcutaneous injection, Litchfield-Wilcoxon. The data set is classed as in vivo.

SMILES strings stand for the structures.
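Wherever LD50 is given: animals allocated into more than five groups, with five mice per group.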

From the text for male mice of ddy-strain: test animals: more than five groups, each group
consisting of five male mice of ddy-

As to `Cl.Clc1ccc(C(OCCN2CCCCC2)c2ccccc2)cc1` (stereo not shown) [Compound 13, Hustazol, reference compound], the 50% lethal dose (LD50) (usually the dose expected to kill half of the subjects tested) in the data set with male mice of ddy-strain was determined as 375 mg/kg. Moreover, the “Antitussive Ratio” value in the data set with dogs is 0.52.
In the data set with male mice of ddy-strain, `COc1ccc2c3c1O[C@H]1[C@@H](O)C=C[C@H]4[C@@H](C2)N(C)CC[C@@]341` [Compound 17, codeine phosphate, reference compound] displayed an LD50 of 190 mg/kg. Further, in the data set on dogs, the ED50 came out at 2.2 mg/kg and the “Antitussive Ratio” value was found to be 1.00. For the same compound, in the data set with persons, the habituation entry is on record as “appreciable habituation”.
For `Cl.c1ccc(N(CCN2CCCCC2)Cc2ccccn2)cc1` [Compound 11, picoperidamine hydrochloride, reference compound], the LD50 with male mice of ddy-strain came out at 144 mg/kg. The “Antitussive Ratio” value with dogs is given as 0.95.
`COc1ccccc1C(=Nc1ccccc1C)NC1CCCCC1.Cl` [Compound 36, N-cyclohexyl, N'-o-tolyl-o-methoxy-benzamidine hydrochloride] yielded an LD50 at 72 h in the data set “in vivo” of 100 mg/kg. Moreover, the ED50 in the data set on dogs came out at 4.29 mg/kg.

The record behind these values is patent publication US3988364A, “Novel N,N-di-substituted amidines and several acid-addition salts thereof” (Toyo Jozo Kabushiki Kaisha, priority 1972, dated 1976).
